Legend:
Raw 264.7 cells = experiment: Raw cells activation, FACS of activation markers CD80, CD40, CD86, MHC-II; format: cell-based; conditions: 24 h and 48 h, compared to negative control and other peptides
Experimental: Additional testing was carried out to verify the activation levels if the peptides using expression level of activation markers. Raw cells were activated using the peptides of SEQ ID Nos. 1, 4 and 5 and a control peptide. The analysis of the activation level was done by examining the expression level of few activation markers. In order to verify the obtained results, two repeats were done. Standard Raw cells activation and FACS staining protocol were carried out.
The following describes the experimental design in detail. 5-7.5X10^6 Raw 264.7 cells were seeded in 6-well plates 24 h prior to the stimulation in 3ml/well of DMEM containing 4 mmol/L glutamine and 10% heat-inactivated FCS. At the next day, cells were treated with bacterial LPS (10 or 100 ng/ml, E coli, sigma) as positive control, and with peptides SEQ ID Nos. 1, 4, 5 and the control peptide (50, 100 and 200 μM for each peptide). The volume of the incubation was 1.5 ml for each well. After 24 or 48 h (two experiments), the concentrations of nitrite were measured in the culture supernatant by the Griess assay while absorbance was read at 550 nm. Simultaneously, the cells were stained for surface receptors: CD40, CD80, CD86 and MHC-II with the appropriate antibodies (biolegend) and analysed by flow cytometry using FSC express 3 software. […]

[1] = tested on: TLR4 with MD2 or CD14 co-receptor; experiment: Reporter gene (SEAP) PAMP assay in NIH3T3 cells expressing TLR4 with MD2 or CD14 co-receptor; format: cell-based; conditions: summary of FIGS. 6A-6V
Source text: FIGS. 6A-6V show the dose response inhibitor/activator effects of the designed peptides using a reporter gene assay. The reporter gene assay is composed of NIH3T3 cells transfected with either MD2 or CD14 along with TLR4 and the NF-κB-inducible reporter gene Secreted Alkaline Phosphatase (SEAP) to monitor TLR4 activation (Burger-[…] al. 2010, A new cell-based innate immune receptor assay for the examination of receptor activity, ligand specificity, signaling pathways and the detection of pyrogens. […] The receptors are coupled to for the detection of inhibitory activity, cells were treated with the peptide prior to exposure to LPS and the response to LPS is measured at variable peptide doses (as labeled). The detection of cell activation was performed using the peptide alone, at variable doses, as indicated in the respective graphs. The following presents in more details the experimental procedures. Experimental setup: The cell-based Assay is performed with different NIH3T3 reporter cell lines (NIH 3T3 PRR SEAP-TLR4/CD14 or -TLR4/MD2) and the control cell line NIH 3T3 SEAP. The NIH3T3 SEAP cell line is used in order to determine the background of the alkaline phosphatase expression. It is a cell line stably transfected with only the reporter gene plasmid. For each assay a vial of the master cell bank is revitalized and seeded in a standard cell culture flask (75 cm^2 T-Flask) at day one. Cells are cultured in 20 ml culture media (DMEM supplemented with 10% FCS (heat inactivated), 50 units/ ml penicillin, 0.05 mg/ ml streptomycin and 2 mmol/ L L-glutamine). The cells are cultured at 37° C. in a 5% CO2 humidified atmosphere. At Day 1: For the PAMP Assay cells are seeded in a 96-well plate at a density of 0.3.10^5 cells/well in a final volume of 100 μl culture media (DMEM, 10% FCS (heat inactivated)). To ensure equal culture conditions the 96-well cell culture plates are placed side by side and cultivated in a humidified CO2 incubator (37° C. and 5% CO2). […] After a cultivation period of 24 h the media is removed and replaced with the respective volume of fresh media (DMEM, 0.5% FCS (heat inactivated)).The lyophilized peptides are stored in a freezer at -20° C. upon arrival. For the experiments they are dissolved in DMSO (to the highest possible concentration). Before opening the peptides are allowed to equilibrate to room temperature (in order to reduce the uptake of moisture). For each experiment the stock solution is diluted in DMEM to the appropriate working concentration. […] Sonication was also used to help dissolve the peptides. Immediately after replacing the media, the diluted peptides are applied in a serial dilution to the cells and directly after that the agonist is added to the cells. After adding peptide and […] the final volume in each well of a 96 well plate amounts 100 μl/well. The culture medium containing 0.5% FCS is used as a negative reference item. The induction is performed for 18 h at 37° C. and 5% CO2. At Day 3: To determine the final SEAP value, 50 μl of the supernatant is carefully transferred in a new 96-well plate (Greiner-F-plate) and 50 μl of the substrate (pNPP; p-nitrophenyl phosphate) is added. SEAP catalyzes the hydrolysis of pNPP to the final product para-nitrophenol (yellow) which can be detected by a photometric analysis using an UV-VIS reader at 405 nm. […] The results of FIGS. 6A-6V with respect to peptide activity are summarized in Table 1 above with respect to the type of effect of the respective peptide (activation/inhibition) and with respect to the corresponding co-receptor (MD2/CD14). Data concerning SEQ ID No. 22 with respect to co-receptor CD14 is in preparation.

LAWYFGRKIKE (Inhibitor) [SEQ ID No. 11]
stimulation of raw cells (expression of activation markers) (Raw 264.7 cells): most promising stimulator | Co-Receptor/s ([1]; co-receptor (MD2/CD14) via which the effect occurs): MD2 | Activity ([1]; type of effect (activation/inhibition) on TLR4): Inhibitor

— patent publication US20200247849A1, “PEPTIDE AGONISTS AND ANTAGONISTS OF TLR4 ACTIVATION” (PEPTICOM LTD, priority 2016, published 2020)
